# Target: T1, 15-PGDH/HPGD (Homo sapiens, UniProt P15428)
# T1 construct: purchased R&D System 5660-DH
# T1 sequence (P15428 1-266): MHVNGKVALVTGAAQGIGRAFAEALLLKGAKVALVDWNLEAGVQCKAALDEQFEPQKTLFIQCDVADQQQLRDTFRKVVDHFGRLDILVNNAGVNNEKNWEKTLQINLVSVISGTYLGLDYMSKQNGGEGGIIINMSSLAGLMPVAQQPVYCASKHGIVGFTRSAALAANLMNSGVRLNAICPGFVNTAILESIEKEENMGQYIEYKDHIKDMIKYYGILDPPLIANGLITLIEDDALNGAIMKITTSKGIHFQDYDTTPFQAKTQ
# Assay: hPGDH inhibitor screening biochemical assay
# Conditions: 10 nM enzyme, 15 μM PGE2, 0.25 mM NAD, fluorescence ex/em 340/485 nm
# Protocol: A hydroxyprostaglandin dehydrogenase inhibition screening biochemical assay can be performed to assess the synthesized inhibitors provided herein. Provided herein is an exemplary biochemical assay for hPGDH inhibitor screening.
# The in vitro biochemical assay can be performed in white, 384 plates in total 20 μl reaction volume consisting of 10 nM of 15-PGDH/HPGD (R&D System #5660-DH), 15 μM Prostaglandin E2 (Sigma, Cat #P5640-10MG) and 0.25 mM β-Nicotinamide adenine dinucleotide sodium salt (Sigma, Cat #N0632-5G) made in reaction buffer (50 mM Tris-HCl, pH 7.5, 0.01% Tween 20) at 10-point dose response curve for test/tool compounds. Briefly, 5 μl (4×) of compounds solution and 5 μl (final concentration, 10 nM) of enzyme solution is added to white 384 well plates and incubated for 10 mins at 37° C. 5 μl (4×) of Prostaglandin E2 and 5 μl (4×) of β-Nicotinamide adenine dinucleotide sodium salt is added to the wells and incubated for 10 mins at room temperature. Fluorescence is recorded at ex/em=340 nm/485 nm. The percentage ([…]) inhibition of enzyme activity was determined relative to positive control (1% DMSO) and IC50 was calculated using GraphPad prism software (four parameter-variable slope equation).
row,SMILES,IC50 [nM]
1,CCO[C@H]1CCN(C(=O)c2cnc3c(cnn3-c3ccc(-c4nnc[nH]4)cc3)c2)C1 [Compound C-43],100 to 1000
2,O=C(c1cnc2c(cnn2-c2ccc(-c3nnc[nH]3)c(F)c2)c1)N1CCC(F)(F)CC1 [Compound C-63],< 100
3,CCOC(=O)Nc1cncc(-n2ncc3cc(C(=O)N4CCC[C@H](C(F)(F)F)C4)cnc32)c1 [Compound C-54],100 to 1000
4,"O=C(c1ccn2c(-c3ccc(-c4ncn[nH]4)nc3)cnc2c1)N1CCC(F)(F)CC1 [Compound D-3, (3-(6-(1H-1,2,4-triazol-5-yl)pyridin-3-yl)imidazo[1,2-a]pyridin-7-yl)(4,4-difluoropiperidin-1-yl)methanone]",100 to 1000
5,"O=C(O)c1ccc(-c2cnc3cc(C(=O)N4CCC(F)(F)CC4)ccn23)cn1 [Compound D-2, 5-(7-(4,4-difluoropiperidine-1-carbonyl)imidazo[1,2-a]pyridin-3-yl)picolinic acid]",100 to 1000
6,CN(C)c1nc2ccc(-n3ncc4cc(C(=O)N5CCC(F)(F)CC5)cnc43)cn2n1 [Compound C-24],≥ 1000
7,CCCC[S+]([O-])c1cnc2c(cnn2-c2cccc(-c3nnc[nH]3)c2)c1 (centres unmarked) [Compound C-92],100 to 1000
8,O=C(c1cnc2c(cnn2-c2ccc(-c3nnc[nH]3)nc2)c1)N1CC2CCCC2C1 (centres unmarked) [Compound C-22],< 100
9,"O=C(c1cnc2c(c1)nnn2-c1ccc(-c2ncn[nH]2)cc1)N1CCC(F)(F)CC1 [Compound C-7, (3-(4-(1H-1,2,4-triazol-5-yl)phenyl)-3H-[1,2,3]triazolo[4,5-b]pyridin-6-yl) (4,4-difluoropiperidin-1-yl)methanone]",< 100
10,O=C(c1ccc2c(cnn2-c2ccc(-c3ncn[nH]3)nc2)c1)N1CCC(F)(F)CC1 [Compound C-12],< 100
11,CCO[C@@H]1CCN(C(=O)c2cnc3c(cnn3-c3ccc(-c4nnc[nH]4)cc3)c2)C1 [Compound C-44],≥ 1000
12,O=C(c1cnc2c(cnn2-c2ccc(-c3ncn[nH]3)nc2)c1)N1CCC(F)(F)CC1 [Compound C-4],< 100
13,[O-][S+](CC1CC1)c1cnc2c(cnn2-c2ccc(-c3nnc[nH]3)cc2)c1 (centres unmarked) [Compound C-95],100 to 1000
14,COc1cc(-n2ncc3cc(C(=O)N4CCC(F)(F)CC4)cnc32)ccc1-c1nnc[nH]1 [Compound C-74],< 100
15,C[C@H]1CCN(C(=O)c2cnc3c(cnn3-c3ccc(-c4nnc[nH]4)nc3)c2)C1 [Compound C-21],< 100
16,CCCC[S+]([O-])c1cnc2c(cnn2-c2ccc(-c3nnc[nH]3)cc2)c1 (centres unmarked) [Compound C-93],100 to 1000
17,"O=C(c1ccc2c(c1)ncn2-c1ccc(-c2ncn[nH]2)cc1)N1CCC(F)(F)CC1 [Compound C-16, (1-(4-(1H-1,2,4-triazol-5-yl)phenyl)-1H-benzo[d]imidazol-5-yl)(4,4-difluoropiperidin-1-yl)methanone]",< 100
18,"O=C(c1cnc2c(cnn2-c2cc(Cl)cc(-c3nnc[nH]3)c2)c1)N1CCSCC1 [Compound C-66, (1-(3-chloro-5-(4H-1,2,4-triazol-3-yl)phenyl)-1H-pyrazolo[3,4-b]pyridin-5-yl)(thiomorpholino)methanone]",< 100
19,O=C(c1cnc2c(cnn2-c2ccc(-c3nnc[nH]3)cc2)c1)N1CC2CC2C1 (centres unmarked) [Compound C-42],100 to 1000
20,"O=C(O)c1ccc(-c2cnc3cc(C(=O)N4CCC(F)(F)CC4)ccn23)cc1 [Compound D-1, 4-(7-(4,4-difluoropiperidine-1-carbonyl)imidazo[1,2-a]pyridin-3-yl)benzoic acid]",< 100
21,"O=C(O)c1ccc(-n2cc3cc(C(=O)N4CCC(F)(F)CC4)ccc3n2)cc1 [Compound D-4, 4-(5-(4,4-difluoropiperidine-1-carbonyl)-2H-indazol-2-yl) benzoic acid]",100 to 1000
22,COc1cc(-c2nnc[nH]2)cc(-n2ncc3cc(C(=O)N4CCC(F)(F)CC4)cnc32)c1 [Compound C-71],< 100
23,"O=C(c1cnc2c(c1)nnn2-c1ccc(-c2ncn[nH]2)nc1)N1CCC(F)(F)CC1 [Compound C-5, (3-(6-(1H-1,2,4-triazol-5-yl)pyridin-3-yl)-3H-[1,2,3]triazolo[4,5-b]pyridin-6-yl) (4,4-difluoropiperidin-1-yl)methanone]",< 100
24,C[C@H]1CCCN(C(=O)c2cnc3c(cnn3-c3cncc(C(N)=O)c3)c2)C1 [Compound C-35],< 100
25,O=C(Nc1cccc(-n2ncc3cc(C(=O)N4CCC(F)(F)CC4)cnc32)c1)C1CC1 [Compound C-49],100 to 1000
26,O=C(c1cnc2c(cnn2-c2ccc(-c3nnc[nH]3)c(F)c2)c1)N1CCSCC1 [Compound C-64],< 100
27,C[C@@H]1CCN(C(=O)c2cnc3c(cnn3-c3ccc(-c4nnc[nH]4)cc3)c2)C1 [Compound C-46],100 to 1000

# Next, values leading:
row,IC50 [nM],SMILES
1,< 100,O=C(c1cnc2c(cnn2-c2cc(Cl)cc(-c3nnc[nH]3)c2)c1)N1CCC(F)(F)CC1 [Compound C-62]
2,< 100,O=C(c1cnc2c(cnn2-c2ccc(-c3nnc[nH]3)c(Cl)c2)c1)N1CCSCC1 [Compound C-68]
3,< 100,C[C@@H]1CN(C(=O)c2cnc3c(cnn3-c3cc(Cl)cc(-c4nnc[nH]4)c3)c2)CCO1 [Compound C-60]
4,≥ 1000,C[C@H]1CCN(C(=O)c2cnc3c(cnn3-c3ccc(-c4nnc[nH]4)cc3)c2)C1 [Compound C-47]
5,< 100,CC(F)(F)[C@H]1CCN(C(=O)c2cnc3c(cnn3-c3ccc(-c4nnc[nH]4)cc3)c2)C1 [Compound C-61]
6,100 to 1000,O=C(c1cnc2c(cnn2-c2cc(Cl)cc(-c3nnc[nH]3)c2)c1)N1CC[S+]([O-])CC1 [Compound C-67]
7,< 100,"O=C(O)c1ccc(-n2ncc3cc(C(=O)N4CCC(F)(F)CC4)ccc32)cc1 [Compound C-14, 4-(5-(4,4-difluoropiperidine-1-carbonyl)-1H-indazol-1-yl) benzoic acid]"
8,< 100,C[C@H]1CCCN(C(=O)c2cnc3c(cnn3-c3cncc(-c4nc[nH]n4)c3)c2)C1 [Compound C-34]
9,< 100,O=C(c1cnc2c(cnn2-c2ccc(-c3nnc[nH]3)cc2)c1)N1CCCC(F)(F)C1 [Compound C-31]
10,< 100,Cc1cc(-n2ncc3cc(C(=O)N4CCC(F)(F)CC4)cnc32)ccc1-c1nnc[nH]1 [Compound C-72]
11,< 100,"O=C(O)c1ccc(-n2ncc3cc(C(=O)N4CCC(F)(F)CC4)cnc32)cc1 [Compound C-2, 4-(5-(4,4-difluoropiperidine-1-carbonyl)-1H-pyrazolo[3,4-b]pyridin-1-yl) benzoic acid]"
12,< 100,C[C@H]1CCCN(C(=O)c2cnc3c(cnn3-c3ccc(-c4nnc[nH]4)nc3)c2)C1 [Compound C-20]
13,< 100,"Cc1nc2cc(C(=O)N3CCC(F)(F)CC3)cnc2n1-c1ccc(C(=O)O)cc1 [Compound C-3, 4-(6-(4,4-difluoropiperidine-1-carbonyl)-2-methyl-3H-imidazo[4,5-b]pyridin-3-yl)benzoic acid]"
14,< 100,COCC(=O)Nc1cncc(-n2ncc3cc([S+]([O-])C4CCC(F)(F)CC4)cnc32)c1 (centres unmarked) [Compound C-124]
15,100 to 1000,"O=C(c1ccc2c(c1)ncn2-c1ccc(-c2ncn[nH]2)nc1)N1CCC(F)(F)CC1 [Compound C-15, (1-(6-(1H-1,2,4-triazol-5-yl)pyridin-3-yl)-1H-benzo[d]imidazol-5-yl)(4,4-difluoropiperidin-1-yl)methanone]"
16,100 to 1000,O=C(c1cnc2c(cnn2-c2ccc(-c3nnc[nH]3)c(Cl)c2)c1)N1CC[S+]([O-])CC1 [Compound C-70]
17,100 to 1000,CC1(C)CCN(C(=O)c2cnc3c(cnn3-c3ccc(-c4nnc[nH]4)cc3)c2)C1 [Compound C-51]
18,100 to 1000,O=C(c1cnc2c(cnn2-c2ccc(-c3nnc[nH]3)c(F)c2)c1)N1CC[S+]([O-])CC1 [Compound C-69]
19,100 to 1000,"O=C(c1ccc2c(c1)nnn2-c1ccc(-c2ncn[nH]2)cc1)N1CCC(F)(F)CC1 [Compound C-10, (1-(4-(1H-1,2,4-triazol-5-yl)phenyl)-1H-benzo[d][1,2,3]triazol-5-yl) (4,4-difluoropiperidin-1-yl)methanone]"
20,< 100,"O=C(O)c1ccc(-n2nnc3cc(C(=O)N4CCC(F)(F)CC4)cnc32)cc1 [Compound C-1, 4-(6-(4,4-difluoropiperidine-1-carbonyl)-3H-[1,2,3]triazolo[4,5-b]pyridin-3-yl)benzoic acid]"
21,< 100,O=C(c1cnc2c(cnn2-c2ccc(-c3nnc[nH]3)cc2F)c1)N1CCC(F)(F)CC1 [Compound C-73]
22,100 to 1000,CCOC(=O)Nc1cncc(-n2ncc3cc(C(=O)N4CC[C@H](C(C)(F)F)C4)cnc32)c1 [Compound C-65]
23,< 100,O=C(c1ccc2c(cnn2-c2ccc(-c3ncn[nH]3)cc2)c1)N1CCC(F)(F)CC1 [Compound C-13]

# Reference: patent US20240374579A1, “BICYCLIC PGDH INHIBITORS AND METHODS OF MAKING AND USING” (EPIRIUM BIO INC., priority 2021, published 2024)
